In ChEMBL document CHEMBL3885881, “DrugMatrix”:

Species: Rattus norvegicus
Assay: DrugMatrix - Regimen: Daily Repeat
Assay type: toxicity, organism-based, Sprague-Dawley
Parameters: regimen Daily Repeat, gender Male, age 6-8 weeks
Conditions: in vivo, sc, route subcutaneous, […]; for ALANINE AMINOTRANSFERASE / ALKALINE PHOSPHATASE / ASPARTATE AMINOTRANSFERASE / BLOOD UREA NITROGEN / CARBON DIOXIDE / CHOLESTEROL / CREATINE PHOSPHOKINASE / CREATININE / GLUCOSE / LACTATE DEHYDROGENASE / LIPASE / PHOSPHORUS / POTASSIUM / TOTAL BILIRUBIN / TOTAL PROTEIN / URIC ACID / ALBUMIN / CHLORIDE: tissue Plasma
[1] = 0 mg/kg, 72 h, tissue Blood, dose level Control, time 3 day
[2] = 0 mg/kg, 72 h, dose level Control, time 3 day
[3] = 0 mg/kg, 120 h, tissue Blood, dose level Control, time 5 day
[4] = 0 mg/kg, 120 h, dose level Control, time 5 day
[5] = 10 mg/kg, 72 h, tissue Blood, dose level Low, time 3 day
[6] = 10 mg/kg, 72 h, dose level Low, time 3 day
[7] = 10 mg/kg, 120 h, tissue Blood, dose level Low, time 5 day
[8] = 10 mg/kg, 120 h, dose level Low, time 5 day
[9] = 100 mg/kg, 72 h, tissue Blood, dose level High, time 3 day
[10] = 100 mg/kg, 72 h, dose level High, time 3 day
[11] = 100 mg/kg, 120 h, tissue Blood, dose level High, time 5 day
[12] = 100 mg/kg, 120 h, dose level High, time 5 day

## COBALT(II) ACETYLACETONATE
[1]
  ABSOLUTE BASOPHIL: 0 CELLS/uL
  ABSOLUTE EOSINOPHIL: 42.67 CELLS/uL
  ABSOLUTE LYMPHOCYTE: 10202 CELLS/uL
  ABSOLUTE MONOCYTE: 261.5 CELLS/uL
  ABSOLUTE SEGMENTED NEUTROPHIL: 2193.83 CELLS/uL
  BASOPHIL: 0%
  EOSINOPHIL: 0.33%
  ERYTHROCYTE COUNT: 5.63 x10E6/uL
  HEMATOCRIT: 35.35%
  HEMOGLOBIN: 13.07 G/DL
  LEUKOCYTE COUNT: 12.7 x10E3/uL
  LYMPHOCYTE: 81.17%
  MEAN CORPUSCULAR HEMOGLOBIN: 23.23 pg
  MEAN CORPUSCULAR HEMOGLOBIN CONCENTRATION: 36.97 G/DL
  MONOCYTE: 2%
  NUCLEATED RED BLOOD CELLS: 0 /100WBC
  PLATELET COUNT: 1180.33 x10E3/uL
[2]
  ALANINE AMINOTRANSFERASE: 48.67 u/L
  ALKALINE PHOSPHATASE: 360.67 u/L
  ASPARTATE AMINOTRANSFERASE: 85.5 u/L
  BLOOD UREA NITROGEN: 17.83 mg/dL
  CARBON DIOXIDE: 26.17 mmol/L
  CHOLESTEROL: 71 mg/dL
  CREATINE PHOSPHOKINASE: 515.17 u/L
  CREATININE: 0.22 mg/dL
  GLUCOSE: 192.5 mg/dL
  LACTATE DEHYDROGENASE: 214.67 u/L
  LIPASE: 8.5 u/L
  PHOSPHORUS: 12.95 mg/dL
  POTASSIUM: 6.39 MEQ/L
  TOTAL BILIRUBIN: 0.18 mg/dL
  TOTAL PROTEIN: 5.95 G/DL
[3]
  ABSOLUTE BASOPHIL: 0 CELLS/uL
  ABSOLUTE EOSINOPHIL: 188.5 CELLS/uL
  ABSOLUTE LYMPHOCYTE: 12360.83 CELLS/uL
  ABSOLUTE MONOCYTE: 64.33 CELLS/uL
  ABSOLUTE SEGMENTED NEUTROPHIL: 1986.33 CELLS/uL
  BASOPHIL: 0%
  ERYTHROCYTE COUNT: 5.52 x10E6/uL
  HEMOGLOBIN: 13.25 G/DL
  LEUKOCYTE COUNT: 14.6 x10E3/uL
  LYMPHOCYTE: 84.5%
  MEAN CORPUSCULAR HEMOGLOBIN: 24.05 pg
  MEAN CORPUSCULAR HEMOGLOBIN CONCENTRATION: 36.98 G/DL
  MEAN CORPUSCULAR VOLUME: 64.97 fL
  MONOCYTE: 0.5%
  NEUTROPHIL: 13.67%
  NUCLEATED RED BLOOD CELLS: 0 /100WBC
  PLATELET COUNT: 1297.83 x10E3/uL
[4]
  ALANINE AMINOTRANSFERASE: 51.17 u/L
  ALKALINE PHOSPHATASE: 393.17 u/L
  ASPARTATE AMINOTRANSFERASE: 111 u/L
  BLOOD UREA NITROGEN: 18.17 mg/dL
  CARBON DIOXIDE: 25 mmol/L
  CHOLESTEROL: 65.5 mg/dL
  CREATINE PHOSPHOKINASE: 911.5 u/L
  CREATININE: 0.21 mg/dL
  GLUCOSE: 183 mg/dL
  LACTATE DEHYDROGENASE: 189 u/L
  LIPASE: 8.33 u/L
  PHOSPHORUS: 12.78 mg/dL
  POTASSIUM: 6.05 MEQ/L
  TOTAL BILIRUBIN: 0.25 mg/dL
  TOTAL PROTEIN: 5.83 G/DL
  URIC ACID: 1.58 mg/dL
[5]
  ABSOLUTE BASOPHIL: 0 CELLS/uL
  ABSOLUTE EOSINOPHIL: 159.33 CELLS/uL
  ABSOLUTE MONOCYTE: 0 CELLS/uL
  ABSOLUTE SEGMENTED NEUTROPHIL: 812 CELLS/uL
  BASOPHIL: 0%
  ERYTHROCYTE COUNT: 5.08 x10E6/uL
  HEMATOCRIT: 32.57%
  HEMOGLOBIN: 12.17 G/DL
  LEUKOCYTE COUNT: 12.37 x10E3/uL
  LYMPHOCYTE: 92%
  MEAN CORPUSCULAR HEMOGLOBIN: 23.97 pg
  MEAN CORPUSCULAR HEMOGLOBIN CONCENTRATION: 37.37 G/DL
  MONOCYTE: 0%
  NEUTROPHIL: 6.67%
  NUCLEATED RED BLOOD CELLS: 0 /100WBC
  PLATELET COUNT: 1184.33 x10E3/uL
[6]
  ALANINE AMINOTRANSFERASE: 47.67 u/L
  ALKALINE PHOSPHATASE: 375.67 u/L
  ASPARTATE AMINOTRANSFERASE: 80 u/L
  CARBON DIOXIDE: 27 mmol/L
  CHOLESTEROL: 76 mg/dL
  CREATINE PHOSPHOKINASE: 254.67 u/L
  CREATININE: 0.19 mg/dL
  GLUCOSE: 171.67 mg/dL
  LACTATE DEHYDROGENASE: 104.33 u/L
  LIPASE: 8.33 u/L
  PHOSPHORUS: 11.6 mg/dL
  TOTAL BILIRUBIN: 0.13 mg/dL
  TOTAL PROTEIN: 5.73 G/DL
[7]
  ABSOLUTE BASOPHIL: 0 CELLS/uL
  ABSOLUTE EOSINOPHIL: 119 CELLS/uL
  ABSOLUTE MONOCYTE: 35.33 CELLS/uL
  ABSOLUTE SEGMENTED NEUTROPHIL: 1425 CELLS/uL
  BASOPHIL: 0%
  EOSINOPHIL: 1%
  ERYTHROCYTE COUNT: 5.83 x10E6/uL
  HEMATOCRIT: 36.63%
  HEMOGLOBIN: 13.67 G/DL
  LEUKOCYTE COUNT: 11.87 x10E3/uL
  LYMPHOCYTE: 86.67%
  MEAN CORPUSCULAR HEMOGLOBIN: 23.47 pg
  MEAN CORPUSCULAR HEMOGLOBIN CONCENTRATION: 37.3 G/DL
  MONOCYTE: 0.33%
  NEUTROPHIL: 12%
  NUCLEATED RED BLOOD CELLS: 0 /100WBC
  PLATELET COUNT: 1357.67 x10E3/uL
[8]
  ALANINE AMINOTRANSFERASE: 36.67 u/L
  ALBUMIN: 4.6 G/DL
  ALKALINE PHOSPHATASE: 390 u/L
  ASPARTATE AMINOTRANSFERASE: 87 u/L
  BLOOD UREA NITROGEN: 22 mg/dL
  CARBON DIOXIDE: 21.67 mmol/L
  CHOLESTEROL: 77 mg/dL
  CREATINE PHOSPHOKINASE: 460.67 u/L
  CREATININE: 0.24 mg/dL
  GLUCOSE: 176.67 mg/dL
  LACTATE DEHYDROGENASE: 122.67 u/L
  PHOSPHORUS: 13.67 mg/dL
  POTASSIUM: 6.74 MEQ/L
  TOTAL BILIRUBIN: 0.2 mg/dL
  TOTAL PROTEIN: 6.7 G/DL
  URIC ACID: 2.8 mg/dL
[9]
  ABSOLUTE BASOPHIL: 0 CELLS/uL
  ABSOLUTE EOSINOPHIL: 73 CELLS/uL
  ABSOLUTE LYMPHOCYTE: 8659.67 CELLS/uL
  ABSOLUTE MONOCYTE: 133.33 CELLS/uL
  ABSOLUTE SEGMENTED NEUTROPHIL: 2500.67 CELLS/uL
  BASOPHIL: 0%
  EOSINOPHIL: 0.67%
  ERYTHROCYTE COUNT: 5.76 x10E6/uL
  HEMOGLOBIN: 13.3 G/DL
  LEUKOCYTE COUNT: 11.37 x10E3/uL
  LYMPHOCYTE: 75.67%
  MEAN CORPUSCULAR HEMOGLOBIN: 23.1 pg
  MEAN CORPUSCULAR HEMOGLOBIN CONCENTRATION: 37.2 G/DL
  MONOCYTE: 1%
  NEUTROPHIL: 22.67%
  NUCLEATED RED BLOOD CELLS: 0 /100WBC
  PLATELET COUNT: 1207 x10E3/uL
[10]
  ALANINE AMINOTRANSFERASE: 57.33 u/L
  ALKALINE PHOSPHATASE: 376.67 u/L
  ASPARTATE AMINOTRANSFERASE: 106 u/L
  BLOOD UREA NITROGEN: 17.67 mg/dL
  CARBON DIOXIDE: 26.33 mmol/L
  CHLORIDE: 109 MEQ/L
  CHOLESTEROL: 52.33 mg/dL
  CREATINE PHOSPHOKINASE: 315 u/L
  CREATININE: 0.2 mg/dL
  LACTATE DEHYDROGENASE: 200 u/L
  LIPASE: 9 u/L
  PHOSPHORUS: 10.3 mg/dL
  POTASSIUM: 5.87 MEQ/L
  TOTAL BILIRUBIN: 0.2 mg/dL
  TOTAL PROTEIN: 6 G/DL
  URIC ACID: 0.97 mg/dL
[11]
  ABSOLUTE BASOPHIL: 0 CELLS/uL
  ABSOLUTE EOSINOPHIL: 235.33 CELLS/uL
  ABSOLUTE LYMPHOCYTE: 15696 CELLS/uL
  ABSOLUTE SEGMENTED NEUTROPHIL: 4063 CELLS/uL
  BASOPHIL: 0%
  ERYTHROCYTE COUNT: 5.59 x10E6/uL
  HEMATOCRIT: 34.73%
  HEMOGLOBIN: 13.17 G/DL
  LEUKOCYTE COUNT: 20.17 x10E3/uL
  LYMPHOCYTE: 77%
  MEAN CORPUSCULAR HEMOGLOBIN: 23.57 pg
  MEAN CORPUSCULAR HEMOGLOBIN CONCENTRATION: 37.9 G/DL
  MONOCYTE: 1%
  NEUTROPHIL: 20.67%
  NUCLEATED RED BLOOD CELLS: 0 /100WBC
  PLATELET COUNT: 1455 x10E3/uL
[12]
  ALANINE AMINOTRANSFERASE: 47.67 u/L
  ALBUMIN: 3.9 G/DL
  ALKALINE PHOSPHATASE: 334.67 u/L
  ASPARTATE AMINOTRANSFERASE: 110.33 u/L
  BLOOD UREA NITROGEN: 19 mg/dL
  CARBON DIOXIDE: 16 mmol/L
  CHLORIDE: 111.67 MEQ/L
  CHOLESTEROL: 47.67 mg/dL
  CREATINE PHOSPHOKINASE: 488.33 u/L
  CREATININE: 0.18 mg/dL
  LACTATE DEHYDROGENASE: 467.33 u/L
  LIPASE: 8.33 u/L
  PHOSPHORUS: 12.73 mg/dL
  POTASSIUM: 7.45 MEQ/L
  TOTAL BILIRUBIN: 0.23 mg/dL
  TOTAL PROTEIN: 6.1 G/DL
  URIC ACID: 3.1 mg/dL
